Assays:
FGF1, 2, 3, or 4 = settings: comparison with lenvatinib (nonselective inhibitor of FGFR); cited from earlier work
[1] = system: FGFR1 mRNA expression in SRC1 and SRC2 glioblastoma stem cells; assay: FGFR1 mRNA expression by qPCR in glioblastoma stem cells treated with TTFields and FGFR inhibitor; assay type: cell-based; settings: PMGB 125 nM concomitantly with TTFields 200 kHz for 3 days
Description: FGFR1 mRNA level was quantified by qPCR in SRC1 and SRC2 glioblastoma stem cells after 3 days treatment with TTFields (200 kHz). Results are expressed in Fold change of FGFR1 expression in cells treated with TTFields compared to FGFR1 expression in non treated cells with TTFields.
Pemigatininb (PMGB) is an FGFR inhibitor. SRC1 and SRC2 were treated concomitantly with PMGB (125 nM) and TTFields (200 kHz) for 3 days. Results are expressed in Fold change of FGFR1 expression in cells treated with TTFields compared to FGFR1 expression in control cells.
(§1) This study focuses on the involvement of FGFR1 in the control of sensitivity to TTFields. The study was performed on several glioblastoma stem cells (GSC) fully characterized in vitro and in vivo that were obtained from clinical trial STEMRI (NCT01872221) at Institut Claudius Regaud. The inventors wish to thank Institut Claudius Regaud for providing the glioblastoma stem cells used in these experiments.

[2] = system: GBM biopsy specimen (SRA4, SRC1, SRC2, SRB2, and SRA5) glioblastoma stem cells; assay: Cell survival to TTFields in the presence of FGFR1 inhibitor; assay type: cell-based; settings: 5 GBM biopsy specimen, 3 days of TTFields 200 kHz and PMGB 125 nM
Description: as §1
The mechanism of radiation to induce cell death can be a result of DNA damage which leads to apoptosis, because it is known that TTFields also generate DNA damage and reduce the DNA repair mechanism. Radio sensitization is […] following addition of FGFR inhibitor. There is increased sensitivity to TTFields when there is concomitant treatment with FGFR inhibition which indicates a synergistic result of increased secretion of FGF family members in serum and conditioned media following TTFields application, thus explaining the reduced sensitivity of cells to TTFields.

SMILES: CCN1C(=O)N(c2c(F)c(OC)cc(OC)c2F)Cc2cnc3[nH]c(CN4CCOCC4)cc3c21 [Pemigatinib]
- IC50 against at least one of FGF1, 2, 3, or 4, compared with lenvatinib (FGF1, 2, 3, or 4): significantly lower IC50
- FGFR1 mRNA expression induced by TTFields (fold change vs control cells) ([1]; listed as PMGB): inhibited
- FGFR1 mRNA expression induced by TTFields (fold change vs control cells) ([1]; listed as pemigatinib): inhibition
- Cytotoxic effect / cell survival [2]: cytotoxic effect

Reference: US20230405315A1, “Compositions And Methods For Treating With A Combination Of Alternating Electric Fields And FGF Inhibitors” (NOVOCURE GMBH, priority 2022, published 2023)
